{
  "source": "patent EP1834669A1",
  "about": "“Use of specific hydrazone compounds for the treatment of viral infections” (Heinrich-Pette-Institut, priority 2006, dated 2007)",
  "key": {"HIV-1 BaL": {"test_system": "HIV-1 BaL", "assay": "HIV-1 BaL infection of PM1 cells, p24 antigen in supernatant", "assay_type": "cell-based", "conditions": "HIV-1 BaL-infected PM1 cells, p24Gag antigen, day 6 and 9 post-infection; dihydrochloride", "protocol": "The culture medium was changed at day 3 and 6 post-infection and the cells were split 1:1. p24^Gag antigen levels and cell viabilities were determined at day 6 and 9 post-infection. The percentage of inhibition of virus replication in the drug-treated cell culture, as compared to the untreated controls is shown in the upper panel. Cell viabilities from the same cultures were determined by alamarBlue™ assay (Serotec) and is shown in the lower panel. (B) Gag-specific Western-blot analysis. […] (C) Analysis of de novo infection. […]\n(§1) PM1 cells were cultured in RPMI 1640 medium containing 10% fetal calf serum (Pansystems GmbH) and antibiotics (penicillin and streptomycin) and infected with the virus strains exactly as described elsewhere (Hauber, I., Bevec, D., Heukeshoven, J., Krätzer, F., Horn, F., Choidas, A., Harrer, T. & Hauber, J. (2005) J. Clin. Invest 115, 76-85). […] At the same time cell viability (measured by alamarBlue™ assay) and p24 antigen levels in the supernatant (Innotest HIV p24 Antigen mAb; Innogenetics N. V.) were determined. […]"}, "HIV-1 isolate FE9": {"test_system": "HIV-1 isolate FE9", "assay": "Infection of PM1 cells with multidrug-resistant HIV-1 isolate FE9, p24 antigen in supernatant", "assay_type": "cell-based", "protocol": "Culture medium was changed every third day and cells were split 1:1. Cell viabilities and p24 antigen levels were determined at the indicated days. The percentage of inhibition of virus replication in the drug-treated culture as compared with replication in the untreated control culture is shown in the upper panel. The respective virus growth curves as measured by p24 antigen levels in the culture supernatants are shown in the lower panel. n/a; not applicable. (B) Cellular toxicities were determined in the same cultures by alamarBlue™ assay (Serotec) for metabolic activity.\nHIV-1 Infection Experiments. […]\nas §1"}, "[1]": {"test_system": "PBMCs from a healthy donor", "assay": "Apoptosis assay, FACS with FITC-coupled annexin V", "assay_type": "cell-based", "conditions": "0.4 µM, 12 days", "protocol": "Analysis of cellular toxicity. (A) Cell viability assay. […] (B) Cell-cycle analysis. […] FACS-analysis was performed by DNA-staining with propidiumiodide. (C) Apoptosis-assay.\nAnalysis of Cellular Toxicity."}, "eIF-5A": {"test_system": "eIF-5A", "sequence (P63241 whole entry)": "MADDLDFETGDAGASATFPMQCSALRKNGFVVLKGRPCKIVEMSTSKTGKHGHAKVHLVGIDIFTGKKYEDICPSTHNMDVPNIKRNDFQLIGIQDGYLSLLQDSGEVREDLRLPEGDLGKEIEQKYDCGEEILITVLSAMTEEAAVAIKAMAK", "assay": "Hypusine modification of eIF-5A, [14C]putrescine labeling, 2D gel electrophoresis and immunoprecipitation", "assay_type": "cell-based", "conditions": "0.4 µM, PM1 and HeLaCD4-CAT cells", "protocol": "Protein separation was performed using equal amounts of radiolabeled extracts, by isoelectric focusing in the first dimension on an immobilized linear pH gradient (IPG) from pH 4.0 to 7.0, which was followed by SDS-PAGE separation in the second dimension. Only molecular mass of < 25.0 kDa is shown in the autoradiographies. Molecular mass standards are indicated in kDa on the right. […] Coomassie blue-staining of the gel served as protein loading control (lower panel).\nTwo-Dimensional Gel Electrophoresis and Immunoprecipitation Analysis. […] Gel analysis was performed by autoradiography as previously described (Hauber, I., Bevec, D., Heukeshoven, J., Krätzer, F., Horn, F., Choidas, A., Harrer, T. & Hauber, J. (2005) J. Clin. Invest 115, 76-85). For immunoprecipitation of eIF-5A, 2 x 10^6 HeLaCD4-CAT cells (obtained through the NIH AIDS Research and Reference Reagent Program from B.K.Felber and G.N.Pavlakis) were metabolically labeled as above. The various cellular extracts were prepared and analyzed using a rabbit polyclonal anti-eIF-5A antibody (Schatz, O., Oft, M., Dascher, C., Schebesta, M., Rosorius, O., Jaksche, H., Dobrovnik, M., Bevec, D. & Hauber, J. (1998) Proc. Natl. Acad. Sci. U. S. A 95, 1607-1612) as previously described in detail (Hauber, I., Bevec, D., Heukeshoven, J., Krätzer, F., Horn, F., Choidas, A., Harrer, T. & Hauber, J. (2005) J. Clin. Invest 115, 76-85)."}, "HIV-1 Rev pathway": {"test_system": "HIV-1 Rev pathway", "assay": "HIV-1 gag-pol mRNA export with GPV-RRE / GPV-4xCTE constructs in transfected HeLaCD4-CAT cells", "assay_type": "cell-based", "conditions": "0.4 µM, HeLaCD4-CAT cells cultured 5 days, 48 hours post-transfection", "text": "Transcripts expressed from GPV-RRE access the CRM1/exporti nuclear export pathway. Messages expressed from GPV-4xCTE are transported across the nuclear envelope via the NXF1/TAP pathway. CMV-IE, cytomegalovirus immediate early promoter; pA, polyadenylation site; SD, splice donor; SA, splice acceptor; RRE, Rev reponse element; CTE, constitutive transport element. […] Likewise, cultures were transfected with GVP-4xCTE, a negative control plasmid (to maintain input DNA levels) and the constitutive internal control vector pBC12/CMV/SEAP. At 48 hours post-transfection cell supernatants were assayed for secreted alkaline phosphatase (SEAP) and p24 antigen levels. In addition, p55^Gag- and α-tubulin-specific (protein loading control) Western-blot analyses were performed from representative cell cultures at […].\nTransfection Experiments and Plasmids. HeLaCD4-CAT cells were transiently transfected using Lipofectamine and Plus reagent according to the manufacturer's protocol (Invitrogen Corp.). […] At 48 hours post-transfection, cellular lysates were prepared and the levels of β-galactosidase (transfection efficiency control) and luciferase were assayed by ELISA (Roche Applied Science) or luminescence (Promega), respectively. […]"}, "[2]": {"biological_target": "T1, S-adenosylmethionine decarboxylase (SAMDC) (Homo sapiens, UniProt P17707)", "T1 sequence (P17707 68-334 limits assumed)": "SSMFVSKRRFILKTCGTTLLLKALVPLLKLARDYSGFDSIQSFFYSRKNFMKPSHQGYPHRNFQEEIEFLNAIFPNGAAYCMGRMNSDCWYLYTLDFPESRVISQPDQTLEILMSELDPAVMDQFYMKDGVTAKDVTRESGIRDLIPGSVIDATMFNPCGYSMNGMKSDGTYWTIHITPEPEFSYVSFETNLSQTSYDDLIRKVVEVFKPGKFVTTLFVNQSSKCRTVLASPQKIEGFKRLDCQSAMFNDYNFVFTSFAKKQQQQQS", "T1 sequence (P17707 1-67 limits assumed)": "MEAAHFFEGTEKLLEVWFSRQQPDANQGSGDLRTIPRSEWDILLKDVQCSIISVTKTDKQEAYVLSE", "conditions": "dihydrochloride, cited from earlier work"}},
  "note": "“Also recorded” adds a separate entry of the source. Read-outs that look alike come from different tables or passages of the source.",
  "data": [
    {"substance": "2-[4-(aminoiminomethyl)-2,3-dihydro-1H-inden-1-ylidene]-hydrazinecarboximidamide dihydrochloride", "values": [
      {"measurement": "HIV-1 BaL replication", "setting": "HIV-1 BaL", "result": "Inhibition of HIV-1 BaL replication; also recorded: pronounced antiviral effects"},
      {"measurement": "formation of progeny viruses", "setting": "HIV-1 isolate FE9; PM1 cells infected with multiple HAART-resistant isolate FE9, 0.4 µM, dihydrochloride", "result": "Inhibition of a multiple HAART-resistant HIV-1 isolate; also recorded: inhibited"},
      {"measurement": "virus replication", "setting": "HIV-1 isolate FE9; applied concentration 0.4 µM", "result": "perfectly blocked virus replication"},
      {"measurement": "effects on cell death", "setting": "[1]", "result": "did not induce deleterious effects"},
      {"measurement": "hypusine-formation in eIF-5A", "setting": "eIF-5A", "result": "prevents hypusine-formation"},
      {"measurement": "HIV-1 Rev pathway", "setting": "HIV-1 Rev pathway", "result": "Specific inhibition"},
      {"measurement": "inhibition of SAMDC", "setting": "[2]", "result": "potent inhibitor"},
      {"measurement": "inhibition of SAMDC", "setting": "[2]; listed as 2-[4-(aminoiminomethyl)-2,3-dihydro-1H-inden-1-ylidene]-hydrazinecarboximidamide", "result": "efficient inhibitor"}
    ]}
  ]
}
